Several values for one entry are separate records, joined by “and”; a condition that tells them apart may be missing. Equal entries are not always repeated.
How the values were obtained:
[1] = 100.8 kPa, Liquid
[2] = refractive index (Na D-line) (dimensionless); conditions: 298.15 K; 101.33 kPa; Liquid; Standard Abbe refractometry
[3] = xn = mol fraction of the nth substance listed; conditions: 100.8 kPa, Liquid

CC(C)CC(C)(C)C [2,2,4-trimethylpentane]
[1]
Conditions | mass density [kg/m3] | viscosity
298.15 K | 687.8 | 0.474 mPa·s
308.15 K | 679.5 | 0.422 mPa·s and 0.426 mPa·s
318.15 K | 671 | 0.382 mPa·s

Conditions | refractive index
[2] | 1.38902

CC(C)CC(C)(C)C [2,2,4-trimethylpentane] + CCC(C)=O
[3], x2 = 0
Conditions | mass density [kg/m3] | viscosity [mPa·s]
298.15 K | 687.8 | 0.474
308.15 K | 679.5 | 0.426
318.15 K | 671 | 0.382

CC(C)CC(C)(C)C [2,2,4-trimethylpentane] + CCO
[3]
Conditions | mass density, 298.15 K [kg/m3] | mass density, 308.15 K [kg/m3] | mass density, 318.15 K [kg/m3] | viscosity, 298.15 K [mPa·s] | viscosity, 308.15 K [mPa·s] | viscosity, 318.15 K [mPa·s]
x2 = 0 | 687.8 | 679.5 | 671 | 0.474 | 0.422 | 0.382
x2 = 0.05 | 688.8 | 680.4 | 671.7 | 0.476 | 0.424 | 0.384
x2 = 0.1 | 690.3 | 681.8 | 673 | 0.478 | 0.426 | 0.385
x2 = 0.15 | 692.1 | 683.5 | 674.7 | 0.48 | 0.429 | 0.389
x2 = 0.2 | 694 | 685.4 | 676.5 | 0.484 | 0.433 | 0.391
x2 = 0.25 | 696.2 | 687.5 | 678.6 | 0.494 | 0.439 | 0.397
x2 = 0.3 | 698.5 | 689.8 | 680.9 | 0.507 | 0.45 | 0.404
x2 = 0.35 | 701.1 | 692.4 | 683.4 | 0.521 | 0.462 | 0.412
x2 = 0.4 | 704 | 695.2 | 686.2 | 0.54 | 0.474 | 0.422
x2 = 0.45 | 707.1 | 698.3 | 689.3 | 0.561 | 0.487 | 0.433
x2 = 0.5 | 710.6 | 701.8 | 692.8 | 0.586 | 0.506 | 0.446
x2 = 0.55 | 714.5 | 705.7 | 696.6 | 0.613 | 0.527 | 0.463
x2 = 0.6 | 718.8 | 710 | 700.9 | 0.643 | 0.55 | 0.48
x2 = 0.65 | 723.6 | 714.9 | 705.8 | 0.678 | 0.576 | 0.5
x2 = 0.7 | 729.1 | 720.3 | 711.3 | 0.718 | 0.606 | 0.524
x2 = 0.75 | 735.4 | 726.6 | 717.6 | 0.76 | 0.641 | 0.55
x2 = 0.8 | 742.3 | 733.6 | 724.7 | 0.806 | 0.677 | 0.58
x2 = 0.85 | 750.5 | 741.7 | 732.9 | 0.861 | 0.72 | 0.616
x2 = 0.9 | 760.1 | 751.4 | 742.5 | 0.929 | 0.768 | 0.657
x2 = 0.95 | 771.5 | 762.8 | 753.9 | 0.999 | 0.829 | 0.702

CCC(C)=O [butanone]
[1]
Conditions | mass density [kg/m3] | viscosity [mPa·s]
298.15 K | 799.7 | 0.378
308.15 K | 789.2 | 0.341
318.15 K | 778.4 | 0.307

Conditions | refractive index
[2] | 1.37623

Reference: the NIST ThermoML archive (doi:10.1021/je049655w)
